According to ChEMBL document CHEMBL1201862, “PubChem BioAssay data set” (2004):
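Following 48 hours of exposure in 96-well plates, responses at five concentrations were used to interpolate endpoints linearly. GI50 = concentration required for 50% inhibition of growth.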 Activity calls are given as the source filed them. Cut-off read from the data, not from the text of the source: active = GI50 up to about 1.1 µM and inactive = higher.

Key:
Test in all cases: inhibition of tumour cell growth, NCI panel, 48 h
[1] = tested on: CCRF-CEM
[2] = tested on: HOP-92
[3] = tested on: OVCAR-8
[4] = tested on: EKVX
[5] = tested on: HCT-116
[6] = tested on: SW-620
[7] = tested on: A549
[8] = tested on: NCI-H522
[9] = tested on: OVCAR-4
[10] = tested on: UACC-257
[11] = tested on: U-251
[12] = tested on: TK-10
[13] = tested on: SF-268
[14] = tested on: SNB-19
[15] = tested on: Malme-3M
[16] = tested on: ACHN
[17] = tested on: LOX IMVI
[18] = tested on: NCI-H460
[19] = tested on: M14
[20] = tested on: RXF 393

Measured: GI50

O=c1[nH]nc(Cc2ccccc2)n1O
inactive: [1] > 100 µM | [2] > 100 µM | [3] > 100 µM | [4] > 100 µM | [5] > 100 µM | [6] > 100 µM | [7] > 100 µM | [8] > 100 µM | [9] > 100 µM | [10] > 100 µM | [11] > 100 µM | [12] > 100 µM | [13] > 100 µM | [14] > 100 µM | [15] > 100 µM | [16] > 100 µM | [17] > 100 µM

C=CCOc1ccc(C(=N/NC(=O)c2ccccc2)/N=N/c2ccc(C)cc2)cc1OC
inactive: [1] 9.14 µM | [2] 8.79 µM | [3] 25.4 µM | [18] 18.4 µM | [4] 30.9 µM | [5] 19 µM | [6] 31.4 µM | [7] 26.2 µM | [8] 16.4 µM | [9] 37.9 µM | [10] 19.6 µM | [11] 10.4 µM | [12] 30 µM | [13] 52.7 µM | [14] 50 µM | [15] 21.1 µM | [16] 34.8 µM | [19] 22.7 µM | [17] 14.7 µM

O=C1/C(=C/c2ccco2)NC(=S)N1CN1CCCCC1
inactive: [1] 21.8 µM | [2] > 100 µM | [3] 43.7 µM | [4] 98.4 µM | [5] 57.4 µM | [6] 38.5 µM | [7] > 100 µM | [8] > 100 µM | [9] 13.3 µM | [11] > 100 µM | [12] > 100 µM | [13] 68.4 µM | [14] 22.6 µM | [15] 85.5 µM | [16] 34 µM | [19] 99.3 µM | [17] 33.7 µM

O=C(CCC(=O)Nc1cccc(Cl)c1)CC(=O)c1ccc(F)cc1
inactive: [2] > 100 µM | [3] > 100 µM | [18] > 100 µM | [5] > 100 µM | [6] > 100 µM | [7] > 100 µM | [8] > 100 µM | [9] > 100 µM | [10] > 100 µM | [12] > 100 µM | [13] > 100 µM | [14] > 100 µM | [15] > 100 µM | [16] > 100 µM | [19] > 100 µM | [17] > 100 µM

CCOP(=O)(OCC)OC1c2[nH]ccc2-c2cc(C(=O)OC)[nH]c2C1OC (stereo not drawn)
inactive: [1] > 100 µM | [3] > 100 µM | [18] 56.8 µM | [4] > 100 µM | [5] > 100 µM | [6] > 100 µM | [7] > 100 µM | [8] > 100 µM | [9] > 100 µM | [10] > 100 µM | [11] > 100 µM | [12] 73.6 µM | [13] > 100 µM | [14] > 100 µM | [20] > 100 µM | [15] > 100 µM | [16] > 100 µM | [19] > 100 µM | [17] > 100 µM

COC(=O)C(=O)C(C(=O)C(=O)Nc1cccc(OC)c1)c1nc2ccc(Cl)cc2nc1O (stereo not drawn)
inactive: [1] 12.9 µM | [2] 74.5 µM | [3] > 100 µM | [18] > 100 µM | [4] 27.6 µM | [5] > 100 µM | [6] > 100 µM | [7] > 100 µM | [8] > 100 µM | [9] > 100 µM | [10] > 100 µM | [11] > 100 µM | [12] > 100 µM | [13] > 100 µM | [14] > 100 µM | [15] > 100 µM | [16] > 100 µM | [19] > 100 µM | [17] > 100 µM

Oc1cccc(C2SCc3nc4ccccc4n32)c1 (stereo not drawn)
inactive: [1] 48.2 µM | [2] 47.5 µM | [3] 96.2 µM | [18] 60.7 µM | [4] 43.5 µM | [5] 67.9 µM | [6] > 100 µM | [7] 54.7 µM | [8] 38.3 µM | [10] 31.7 µM | [11] 84.5 µM | [12] > 100 µM | [13] 73.6 µM | [14] > 100 µM | [20] 78.7 µM | [15] 41.1 µM | [16] 33.8 µM

OCc1cc2c([nH]c3ccccc32)c(C(O)CO)n1 (stereo not drawn)
inactive: [1] > 100 µM | [2] > 100 µM | [3] > 100 µM | [18] > 100 µM | [4] > 100 µM | [5] > 100 µM | [6] > 100 µM | [7] > 100 µM | [8] > 100 µM | [9] > 100 µM | [10] > 100 µM | [11] > 100 µM | [12] > 100 µM | [13] > 100 µM | [14] > 100 µM | [15] > 100 µM | [16] > 100 µM | [19] > 100 µM | [17] > 100 µM
